Results from publication PMC6270614 (Molecules, 2013).
Like-named read-outs stand apart in the source and are kept apart here.

Assays:
[1] = molecular target: human cannabinoid CB1 receptor (Homo sapiens, UniProt P21554); experiment: CB1 receptor radioligand ([3H]CP-55,940) displacement binding assay; conditions: for inhibition at 1 µM: read-out: displacement of [3H]CP-55,940 in the preliminary screen (printed in the CB1 Ki column)
Description: In all cases, Ki values were calculated by applying the Cheng-Prusoff equation [34] to the IC50 values (obtained by GraphPad, GraphPad Software, Inc., La Jolla, CA, USA) for the displacement of the bound radioligand by increasing concentrations of the test compounds (after three separate experiments for each compound).

[2] = CB1 (Ki, nM), displacement of 0.5 nM [3H]CP-55,940, means ± SEM, n = 3, Cheng-Prusoff from IC50
[3] = Experimental activity (pIC50, M), CoMFA training and test set input
[4] = IC50 (CB1 displacement), displacement of [3H]CP-55,940
[5] = CoMFA training and test set input, read-out: Experimental activity (pIC50) (converted)

human cannabinoid CB1 receptor, sequence (P21554 whole entry): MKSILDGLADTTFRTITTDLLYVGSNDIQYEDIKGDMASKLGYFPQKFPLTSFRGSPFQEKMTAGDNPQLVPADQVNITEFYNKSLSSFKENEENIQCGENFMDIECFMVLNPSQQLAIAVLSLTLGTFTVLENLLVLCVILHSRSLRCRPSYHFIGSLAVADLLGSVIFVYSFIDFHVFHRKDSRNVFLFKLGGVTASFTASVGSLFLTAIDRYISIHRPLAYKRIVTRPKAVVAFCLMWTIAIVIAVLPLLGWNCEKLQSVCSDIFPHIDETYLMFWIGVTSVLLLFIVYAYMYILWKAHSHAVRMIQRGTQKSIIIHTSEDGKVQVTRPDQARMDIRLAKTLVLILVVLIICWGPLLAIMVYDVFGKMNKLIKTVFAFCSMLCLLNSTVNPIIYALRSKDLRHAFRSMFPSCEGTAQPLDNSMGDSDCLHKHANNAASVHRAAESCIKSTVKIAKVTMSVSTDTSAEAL

SMILES	Ki [1, 2] [nM]	IC50 [1, 3] [µM]	melting point [°C]	also measured
Cc1cc2nc(-c3ccncc3)n(Cc3cccc4ccccc34)c2cc1C [Compound 44, 5,6-Dimethyl-1-(naphthalen-1-ylmethyl)-2-(pyridin-4-yl)-1H-benzo[d]imidazole]	4.84 ± 2	0.00887	156.8 to 157.6	IC50 [1, 4]: < 0.01 µM
Fc1ccc2nc(-c3ccncc3)n(Cc3ccc4ccccc4c3)c2c1 [Compound 55, 6-Fluoro-1-(naphthalen-2-ylmethyl)-2-(pyridin-4-yl)-1H-benzo[d]imidazole]	–	–	163.5 to 164.1	IC50 [1, 5]: 1.04 µM; Ki ([1]; read-out: CB1 (Ki)): 567 ± 7 nM
Fc1ccc2c(c1)nc(-c1cccnc1)n2Cc1cccc2ccccc12 [Compound 38, 5-Fluoro-1-(naphthalen-1-ylmethyl)-2-(pyridin-3-yl)-1H-benzo[d]imidazole]	98.2 ± 33.5	0.18	163.4 to 163.9	–
O=C(c1cccc2ccccc12)n1c(-c2cccnc2)nc2ccc(F)cc21 [Compound 16, (6-Fluoro-2-(pyridin-3-yl)-1H-benzo[d]imidazol-1-yl)(naphthalen-1-yl)methanone]	–	–	–	inhibition at 1 µM [1]: < 50%
Fc1ccc2c(c1)nc(-c1ccncc1)n2Cc1ccc2ccccc2c1 [Compound 54, 5-Fluoro-1-(naphthalen-2-ylmethyl)-2-(pyridin-4-yl)-1H-benzo[d]imidazole]	44.4 ± 5.5	0.0815	177.8 to 178.5	–
c1ccc2cc(Cn3c(-c4ccncc4)nc4ccccc43)ccc2c1 [Compound 53, 1-(Naphthalen-2-ylmethyl)-2-(pyridin-4-yl)-1H-benzo[d]imidazole]	–	–	–	IC50 [1, 5]: 0.851 µM; Ki ([1]; read-out: CB1 (Ki)): 464 ± 30.3 nM
c1cncc(-c2nc3ccccc3n2Cc2ccc3ccccc3c2)c1 [Compound 49, 1-(Naphthalen-2-ylmethyl)-2-(pyridin-3-yl)-1H-benzo[d]imidazole]	–	–	146.3 to 147	IC50 [1, 5]: 3.38 µM; Ki ([1]; read-out: CB1 (Ki)): 1840 ± 79.8 nM
O=C(c1cccc2ccccc12)n1c(-c2ccccn2)nc2ccccc21 [Compound 10, Naphthalen-1-yl(2-(pyridin-2-yl)-1H-benzo[d]imidazol-1-yl)methanone]	–	–	–	inhibition at 1 µM [1]: < 50%
Cc1cc2nc(-c3ccccn3)n(Cc3ccc4ccccc4c3)c2cc1C [Compound 48, 5,6-Dimethyl-1-(naphthalen-2-ylmethyl)-2-(pyridin-2-yl)-1H-benzo[d]imidazole]	47.4 ± 11.1	0.0869	–	–
Fc1ccc2c(c1)nc(-c1ccccn1)n2Cc1ccc2ccccc2c1 [Compound 46, 5-Fluoro-1-(naphthalen-2-ylmethyl)-2-(pyridin-2-yl)-1H-benzo[d]imidazole]	–	–	165.7 to 166.4	inhibition at 1 µM [1]: < 50%
c1cncc(-c2nc3ccccc3n2Cc2cccc3ccccc23)c1 [Compound 37, 1-(Naphthalen-1-ylmethyl)-2-(pyridin-3-yl)-1H-benzo[d]imidazole]	75.9 ± 16.6	0.139	160.2 to 161.1	–
O=C(c1ccc2ccccc2c1)n1c(-c2ccccn2)nc2ccc(F)cc21 [Compound 23, (6-Fluoro-2-(pyridin-2-yl)-1H-benzo[d]imidazol-1-yl)(naphthalen-2-yl)methanone]	11.4 ± 0.9	0.0209	–	IC50 [1, 4]: ~0.02 µM
c1ccc2c(Cn3c(-c4ccncc4)nc4ccccc43)cccc2c1 [Compound 41, 1-(Naphthalen-1-ylmethyl)-2-(pyridin-4-yl)-1H-benzo[d]imidazole]	–	–	163.3 to 163.8	IC50 [1, 5]: 0.274 µM; Ki ([1]; read-out: CB1 (Ki)): 149 ± 1.9 nM
Cc1cc2nc(-c3cccnc3)n(C(=O)c3ccc4ccccc4c3)c2cc1C [Compound 28, (5,6-Dimethyl-2-(pyridin-3-yl)-1H-benzo[d]imidazol-1-yl)(naphthalen-2-yl)methanone]	567 ± 27.8	1.04	166.7 to 166.9	–
Cc1cc2nc(-c3cccnc3)n(C(=O)c3cccc4ccccc34)c2cc1C [Compound 17, (5,6-Dimethyl-2-(pyridin-3-yl)-1H-benzo[d]imidazol-1-yl)(naphthalen-1-yl)methanone]	–	–	177.2 to 178	inhibition at 1 µM [1]: < 50%
O=C(c1cccc2ccccc12)n1c(-c2cccnc2)nc2ccccc21 [Compound 14, Naphthalen-1-yl-(2-(pyridin-3-yl)-1H-benzo[d]imidazol-1-yl)methanone]	–	0.18	148 to 148.1	–
Cc1cc2nc(-c3ccncc3)n(C(=O)c3cccc4ccccc34)c2cc1C [Compound 21, (5,6-Dimethyl-2-(pyridin-4-yl)-1H-benzo[d]imidazol-1-yl)(naphthalen-1-yl)methanone]	3.95 ± 0.8	0.00724	167.2 to 168	IC50 [1, 4]: < 0.01 µM

SMILES	Ki [1, 2] [nM]	IC50 [1, 3] [µM]	melting point [°C]	also measured
c1ccc(-c2nc3ccccc3n2Cc2ccc3ccccc3c2)nc1 [Compound 45, 1-(Naphthalen-2-ylmethyl)-2-(pyridin-2-yl)-1H-benzo[d]imidazole]	31.8 ± 12	0.0583	150.7 to 151.8	–
Fc1ccc2c(c1)nc(-c1cccnc1)n2Cc1ccc2ccccc2c1 [Compound 50, 5-Fluoro-1-(naphthalen-2-ylmethyl)-2-(pyridin-3-yl)-1H-benzo[d]imidazole]	–	–	175.7 to 176.8	IC50 [1, 5]: 0.6 µM; Ki ([1]; read-out: CB1 (Ki)): 327 ± 60 nM
O=C(c1cccc2ccccc12)n1c(-c2cccnc2)nc2cc(F)ccc21 [Compound 15, (5-Fluoro-2-(pyridin-3-yl)-1H-benzo[d]imidazol-1-yl)(naphthalen-1-yl)methanone]	534	0.979	–	–
Cc1cc2nc(-c3ccccn3)n(C(=O)c3ccc4ccccc4c3)c2cc1C [Compound 24, (5,6-Dimethyl-2-(pyridin-2-yl)-1H-benzo[d]imidazol-1-yl)(naphthalen-2-yl)methanone]	28.1 ± 2.3	0.0515	168.7 to 169.6	–
Fc1ccc2c(c1)nc(-c1ccccn1)n2Cc1cccc2ccccc12 [Compound 34, 5-Fluoro-1-(naphthalen-1-ylmethyl)-2-(pyridin-2-yl)-1H-benzo[d]imidazole]	–	–	155.7 to 155.9	inhibition at 1 µM [1]: < 50%
O=C(c1ccc2ccccc2c1)n1c(-c2ccncc2)nc2ccc(F)cc21 [Compound 31, (6-Fluoro-2-(pyridin-4-yl)-1H-benzo[d]imidazol-1-yl)(naphthalen-2-yl)methanone]	5.55 ± 0.9	0.0102	–	IC50 [1, 4]: < 0.01 µM
Cc1cc2nc(-c3ccccn3)n(C(=O)c3cccc4ccccc34)c2cc1C [Compound 13, (5,6-Dimethyl-2-(pyridin-2-yl)-1H-benzo[d]imidazol-1-yl)(naphthalen-1-yl)methanone]	–	–	167.2 to 168	inhibition at 1 µM [1]: < 50%
O=C(c1cccc2ccccc12)n1c(-c2ccccn2)nc2cc(F)ccc21 [Compound 11, (5-Fluoro-2-(pyridin-2-yl)-1H-benzo[d]imidazol-1-yl)(naphthalen-1-yl)methanone]	–	–	167.2 to 167.9	inhibition at 1 µM [1]: < 50%
Fc1ccc2nc(-c3ccccn3)n(Cc3cccc4ccccc34)c2c1 [Compound 35, 6-Fluoro-1-(naphthalen-1-ylmethyl)-2-(pyridin-2-yl)-1H-benzo[d]imidazole]	–	–	160.7 to 161.1	inhibition at 1 µM [1]: < 50%
Fc1ccc2nc(-c3cccnc3)n(Cc3ccc4ccccc4c3)c2c1 [Compound 51, 6-Fluoro-1-(naphthalen-2-ylmethyl)-2-(pyridin-3-yl)-1H-benzo[d]imidazole]	10.7 ± 2.8	0.0196	–	IC50 [1, 4]: ~0.02 µM
O=C(c1cccc2ccccc12)n1c(-c2ccncc2)nc2ccc(F)cc21 [Compound 20, (6-Fluoro-2-(pyridin-4-yl)-1H-benzo[d]imidazol-1-yl)(naphthalen-1-yl)methanone]	–	–	190.4 to 190.9	inhibition at 1 µM [1]: < 50%
Fc1ccc2nc(-c3cccnc3)n(Cc3cccc4ccccc34)c2c1 [Compound 39, 6-Fluoro-1-(naphthalen-1-ylmethyl)-2-(pyridin-3-yl)-1H-benzo[d]imidazole]	< 200	0.000979	156.1 to 157	IC50 [1, 4]: < 0.01 µM; Ki ([1]; read-out: CB1 (Ki), displacement of 0.5 nM [3H]CP-55,940, means ± SEM, n = 3, Cheng-Prusoff from IC50): 0.53 ± 0.9 nM
Cc1cc2nc(-c3ccccn3)n(Cc3cccc4ccccc34)c2cc1C [Compound 36, 5,6-Dimethyl-1-(naphthalen-1-ylmethyl)-2-(pyridin-2-yl)-1H-benzo[d]imidazole]	13 ± 1.1	0.0239	155.5 to 156.1	IC50 [1, 4]: ~0.02 µM
Cc1cc2nc(-c3ccncc3)n(Cc3ccc4ccccc4c3)c2cc1C [Compound 56, 5,6-Dimethyl-1-(naphthalen-2-ylmethyl)-2-(pyridin-4-yl)-1H-benzo[d]imidazole]	–	–	133.7 to 134.5	IC50 [1, 5]: 0.442 µM; Ki ([1]; read-out: CB1 (Ki)): 241 ± 10 nM
Cc1cc2nc(-c3cccnc3)n(Cc3ccc4ccccc4c3)c2cc1C [Compound 52, 5,6-Dimethyl-1-(naphthalen-2-ylmethyl)-2-(pyridin-3-yl)-1H-benzo[d]imidazole]	140 ± 10.1	0.256	138.5 to 139.5	–
O=C(c1cccc2ccccc12)n1c(-c2ccncc2)nc2ccccc21 [Compound 18, Naphthalen-1-yl-(2-(pyridin-4-yl)-1H-benzo[d]imidazol-1-yl)methanone]	37.8 ± 5.3	0.0693	155 to 156.1	–
O=C(c1ccc2ccccc2c1)n1c(-c2cccnc2)nc2cc(F)ccc21 [Compound 26, (5-Fluoro-2-(pyridin-3-yl)-1H-benzo[d]imidazol-1-yl)(naphthalen-2-yl)methanone]	–	–	–	IC50 [1, 5]: 10.4 µM; Ki ([1]; read-out: CB1 (Ki)): 5700 ± 200 nM
